We go through one compound from US8802439B2, “Methods for enhancing infectivity of retroviruses” (priority 2009, dated 2014).

One data set relates to HIV-1. In words: Single-round infectivity on TZM-bl cells of HIV-1 produced in Pin1-inhibited 293T cells (Galacton-Star galactosidase assay). Type of data set: cell-based. Particulars: for boost of infectivity: TZM-bl target cells. The text has this: Viral inocula from transfections above were normalized to equal virion particle number via p24 ELISA and used to infect target CD4^+ HeLa cells (1×10^5 TZM-bl). Infectivity was scored using the Galacton-Star enzymatic galactosidase activity assay, and infectivity quantified by relative […] units (R.F.U).
Plasmids: Laboratory-adapted provirus NL4.3, and the CypA-independent NL4.3 CAi2 were kindly provided by Akio Adachi (Department of Virology, Institute of Health Biosciences, The University of Tokushima Graduate School, JAPAN). Mutant R9G89V was a gift from P. Gallay (TSR1) as were NL4.3-GFP and SIV-GFP (originally Dana Gabuzda, Dana Farber Cancer Institute). NL4.3 A92E was kindly provided by W. Phares (Genetics Unit, Novartis Forschungsinstitut, Vienna, Austria). R9Δgp160 plasmid clone was kindly provided by C. Aiken (Vanderbilt Medical Center). VSV-G (CMV-VSV-G) was kindly provided by D. Trono (École Polytechnique Fédérale de Lausanne). Both bMLV-GFP and nMLV-GFP in the form of pCIG3-N, pCIG3-B as well as pCNCG were kindly provided by J. Stoye (National Institute for Medical Research, UK). Isomerase mutant Pin1 (pFLAG-Pin1R68,69A) and WW-domain mutant Pin1 (pFLAG-Pin1 W34A) were constructed by site-directed mutagenesis. Pseudotyping experiments were performed using DNA constructs encoding the VSV-G generously provided by D. Trono. Human Pin1 was cloned into pFLAG (Sigma-Aldrich) making pFLAG-Pin1. Viruses were produced by transfection of 293T cells using either GeneJuice (Novagen) or calcium phosphate. […] All viruses were harvested 24-48 hours post-transfection and filtered (0.2-μM filter, Steriflip Millipore). HIV-1 viruses were normalized by p24 ELISA (Alliance HIV-1 p24 Antigen ELISA Kit, Perkin Elmer), and/or were normalized via the EnzChek® Reverse Transcriptase Assay Kit (E-22064) (Molecular Probes).
(§1) Infection assays for retrovirus: Single-round infections: CD4^+ TZM-bl 100,000 cells/well/mL were seeded onto 24-well plates 24 hours prior to infection. These cells were infected in quadruplicate to 24-well plates. Infectivity was scored using an enzymatic galactosidase activity assay. Specifically, infected TZM-bl cells were washed and lysed, and 20 μl of lysate was transferred to a 96-well plate for detecting β-galactosidase activity. 100 μl of reaction buffer Galacton-Star substrate (Applied Biosystems, Bedford, Mass.), diluted 1:50, was added to 20 μl of lysate, and the light emission was measured over 1 second in a microplate luminometer after 30 minutes incubation. For human PBMC infections, cells were exposed to 10 ng of wild-type virus for 6 hours, washed, and split into two flasks: one with 10 μM PiB added on day 0 and 3, and one without PiB. Replication was monitored by p24 ELISA. For measuring infectivity of GFP-virus, 50,000 TZMb1, sMAGI, OMK, Vero, BSC-1 and CV-1 cells/well/mL were seeded onto 6-well plates respectively 24 hours prior to infection. Viruses were used to infect in duplicate wells, incubated for 48 hours, washed with PBS, trypsinized, fixed in 1% formaldehyde and subsequently analyzed by fluorescence-activated cell sorting (FACS) for percentage cells infected.
(§2) To examine a potential role for Pin1 in HIV-1 replication we used two inhibitors of Pin1: juglone and PiB. […] 293T cells were transfected with a proviral construct encoding wild-type HIV-1 in the presence or absence of PiB or juglone.

The subject of another data set is 293T cells. To be noted: cell count and trypan blue staining (data not shown).
Excerpt: as §2

Another data set has as its system bMLV-GFP. In words: Infectivity of bMLV-GFP virions (RT-normalized), GFP fluorescence via FACS. Type of data set: cell-based. The protocol: 293T cells were transfected with HIV-1-GFP, SIV-GFP, bMLV-GFP, and nMLV-GFP proviral constructs, and in each case CMV-VSV-G, in the presence or absence of PiB or excess Pin1 as described above. Released virions were normalized via RT assay (EnzChek® Reverse Transcriptase Assay Kit), and infectivity on naïve TZMb1 cells was analyzed by GFP fluorescence via FACS (% cells infected).
as §1, with “For human PBMC infections, cells were exposed to 10 ng of wild-type virus for 6 hours, washed, and split into two flasks: one with 10 μM PiB added on day 0 and 3, and one without PiB.” left out, “For measuring infectivity of GFP-virus, 50,000 TZMb1, sMAGI, OMK, Vero, BSC-1 and CV-1 cells/well/mL were seeded onto 6-well plates respectively 24 hours prior to infection.” left out
We further examined whether blocking Pin1 in producer cells can enhance the infectivity of retroviruses in different primate target cells. […] Infectivity was analyzed by GFP fluorescence via FACS. […] If more cells are infected than the number infected by viruses from untreated cells, this is expressed as a value above 100%—e.g. 2000 cells/10,000 vs 4000 cells/10,000 would be 100% and 200% respectively. […]
In addition to human producer cells, we also examined effect of blocked Pin activity on infectivity of viruses produced in mouse cell lines and nonhuman primate cell lines. […] Infectivity was analyzed by GFP fluorescence via FACS. […]

The conditions of data set [1]: cited from earlier work.
For a further data set, the target named is Pin1 PPIase (Homo sapiens, UniProt Q13526). Particulars: cited from earlier work.
Sequence of Pin1 PPIase (Q13526 whole entry): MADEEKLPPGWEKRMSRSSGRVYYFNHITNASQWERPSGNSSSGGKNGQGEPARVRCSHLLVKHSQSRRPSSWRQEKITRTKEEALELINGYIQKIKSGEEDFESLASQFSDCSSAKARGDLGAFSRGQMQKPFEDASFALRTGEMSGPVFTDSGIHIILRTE
Setting [2] is: produced in 293T with 10 μm PiB, TZMb1.

`CCOC(=O)CN1C(=O)c2ccc3c4c(ccc(c24)C1=O)C(=O)N(CC(=O)OCC)C3=O` [PiB, diethyl-1,3,6,8-tetrahydro-1,3,6,8-tetraoxobenzo[lmn][3,8]phenanthroline-2,7-diacetate]: the “HIV-1 infectivity after treatment of target cells” value with HIV-1 (TZM-bl pre-incubated with 0, 2, 10 μM PiB for 24 hours before VSV-G pseudotyped virus, read 48 hours post-infection) is given as “no effect on HIV-1 infectivity”. Further, the “infectivity of VSV-G pseudotyped HIV-1 lacking gp160 (NL4.3 Δenv)” value in the data set on HIV-1 (produced in 293T in the presence of 2 μM or 10 μM PiB, TZM-bl) was “enhanced”. Further, in the data set on HIV-1 (setting [2]), the “boost of wild-type NL4.3 virus in the FIG. 3H experiment” value is recorded as “rather mild boost” and the “infectivity of CypA-deficient R9G89V mutant HIV-1” value was “dramatically boosted”. The boost of infectivity in the data set with HIV-1 (viruses produced in 293T in the presence of 2.0 μM inhibitor) is given as 2 fold. Moreover, the boost of infectivity in the data set on HIV-1 (viruses produced in 293T in the presence of 10 μM PiB) was 8 fold. In the data set on 293T cells, the producer cell viability result is given as “no effect”. Moreover, the “infectivity of MLV produced in mouse embryonic fibroblasts” value in the data set on bMLV-GFP (MEF producer cells with PiB, TZM target cells) is on record as “enhanced infectivity”. In the data set with bMLV-GFP (produced in 293T with PiB, TZMb1 cells), the “boost of bMLV-GFP infectivity” value came out at 2 fold. Further, in the data set with bMLV-GFP (produced with PiB, TZM, OMK, sMAGI, Vero, CV-1 target cells), the “infectivity of bMLV-GFP in primate target cell panel” value is “enhanced infectivity”. The “stability at 37°” value in data set [1] (37°) was “instability”. In addition, the “stability in aqueous solution” value in data set [1] (aqueous solution) is on record as “breaks down in aqueous solution”. Also, the “IC50 of Pin1 PPIase activity in vitro” value at Pin1 PPIase is “low mM”.
